pIC50: −log10 of the molar value. Like-named read-outs stand apart in the source and are kept apart here.
Biological target: Endothelial lipase (EL) (Homo sapiens (Human), UniProt Q9Y5X9)
Experiment: Endothelial lipase (EL) enzymatic assay with fluorescent substrate A10070 in DMPG vesicles
Type: biochemical
How it was run: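 Compounds were preincubated with enzyme for 30 min at 37° C before FRET-substrate vesicles (A10070 in DMPG, 0.11 mole fraction) were added. Reaction rates were obtained from the 300–900 sec slope of fluorescence at 490/530 nm.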

[1] = EL from conditioned media of HT-1080 cells, 30 min preincubation at 37° C.

Chain of Endothelial lipase (EL) (Q9Y5X9 21-500): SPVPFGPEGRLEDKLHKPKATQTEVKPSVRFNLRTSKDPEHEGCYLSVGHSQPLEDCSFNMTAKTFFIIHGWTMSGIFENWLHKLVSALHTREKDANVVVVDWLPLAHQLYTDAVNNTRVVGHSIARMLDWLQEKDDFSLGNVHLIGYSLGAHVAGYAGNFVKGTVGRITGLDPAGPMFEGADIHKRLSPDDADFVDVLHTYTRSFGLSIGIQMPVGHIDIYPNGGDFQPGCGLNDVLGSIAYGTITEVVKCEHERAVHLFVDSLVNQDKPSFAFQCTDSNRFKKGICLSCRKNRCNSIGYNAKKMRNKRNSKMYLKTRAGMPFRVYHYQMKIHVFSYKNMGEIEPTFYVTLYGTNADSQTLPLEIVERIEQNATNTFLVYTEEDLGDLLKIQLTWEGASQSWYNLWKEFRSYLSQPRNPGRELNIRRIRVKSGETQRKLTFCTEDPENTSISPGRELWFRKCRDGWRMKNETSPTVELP

Row | Compound | pIC50 | pIC50 [1]
1 | COCCS(=O)(=O)C(C(=O)NCC(=O)NC1CC1)c1nc2cc(C(=O)N3CCOCC3)c(F)cc2s1 (stereo not shown) [Example 425, N-(2-(Cyclopropylamino)-2-oxoethyl)-2-(6-fluoro-5-(morpholine-4-carbonyl)benzo[d]thiazol-2-yl)-2-((2-methoxyethyl)sulfonyl)acetamide] | – | 6.69
2 | CC(C)c1cc(CNC(=O)c2ccc3sc(C(C(=O)NCC(=O)NC4CC4)S(=O)(=O)Cc4ccc(F)cc4)nc3c2)on1 (stereo not shown) [Example 426, 2-({[(cyclopropyl-carbamoyl)methyl]carbamoyl}(4-fluorophenyl)methanesulfonyl-methyl)-N-{[3-(propan-2-yl)-1,2-oxazol-5-yl]methyl}-1,3-benzothiazole-5-carboxamide] | 7.21 | –
3 | COCCS(=O)(=O)C(C(=O)NCC(=O)NC1CC1)c1nc2cc(C(=O)OC(C)(C)C)ccc2s1 (stereo not shown) [Example 427, tert-butyl 2-({[(cyclopropyl-carbamoyl)methyl]carbamoyl}(2-methoxyethane-sulfonyl)methyl)-1,3-benzothiazole-5-carboxylate] | 7.18 | –
4 | COCCS(=O)(=O)C(C(=O)NCC(=O)NC1CC1)c1nc2cc(C(=O)N3CC(C)(OC)C3)c(F)cc2s1 (stereo not shown) [Example 429, N-[(cyclopropyl-carbamoyl)methyl]-2-[6-fluoro-5-(3-methoxy-3-methylazetidine-1-carbonyl)-1,3-benzothiazol-2-yl}-2-(2-methoxyethane-sulfonyl)acetamide] | 7.16 | –
5 | O=C(CNC(=O)C(c1nc2ccc(-c3ccccc3)cc2s1)S(=O)(=O)c1ccccc1)NC1CC1 (stereo not shown) [Example 430, 2-(Benzenesulfonyl)-N-[(cyclopropylcarbamoyl)methyl]-2-(6-phenyl-1,3-benzothiazol-2-yl)acetamide] | – | 8.18
6 | O=C(CNC(=O)C(c1nc2ccc(-c3cncnc3)cc2s1)S(=O)(=O)c1ccccc1)NC1CC1 (stereo not shown) [Example 432, 2-(benzenesulfonyl)-N-[(cyclopropyl-carbamoyl)methyl]-2-[6-(pyrimidin-5-yl)-1,3-benzothiazol-2-yl]acetamide] | 7.21 | –
7 | Cn1ccc(-c2ccc3sc(C(C(=O)NCC(=O)NC4CC4)S(=O)(=O)c4ccccc4)nc3c2)cc1=O (stereo not shown) [Example 439, 2-(benzenesulfonyl)-N-[(cyclopropyl-carbamoyl)methyl]-2-[5-(1-methyl-2-oxo-1,2-dihydropyridin-4-yl)-1,3-benzothiazol-2-yl]acetamide] | 7.32 | –
8 | O=C(CNC(=O)C(c1nc2cc(F)c(-c3cncnc3)cc2s1)S(=O)(=O)c1ccccc1F)NC1CC1 (stereo not shown) [Example 441, N-[(cyclopropyl-carbamoyl)methyl]-2-[5-fluoro-6-(pyrimidin-5-yl)-1,3-benzothiazol-2-yl]-2-(2-fluorobenzene-sulfonyl)acetamide] | 7.06 | –
9 | Cc1cc(-c2cc3sc(C(C(=O)NCC(=O)NC4CC4)S(=O)(=O)c4cccc(Cl)c4)nc3cc2F)cnn1 (stereo not shown) [Example 443, 2-(3-chlorobenzene-sulfonyl)-N-[(cyclopropyl-carbamoyl)methyl]-2-[5-fluoro-6-(6-methylpyridazin-4-yl)-1,3-benzothiazol-2-yl}acetamide] | 7.43 | –
10 | O=C(CNC(=O)C(c1nc2cc(F)c(-c3cncnc3)cc2s1)S(=O)(=O)c1ccc(F)c(F)c1)NC1CC1 (stereo not shown) [Example 445, N-[(cyclopropyl-carbamoyl)methyl]-2-(3,4-difluorobenzene-sulfonyl)-2-[5-fluoro-6-(pyrimidin-5-yl)-1,3-benzothiazol-2-yl]acetamide] | 7.23 | –
11 | O=C(CNC(=O)C(c1nc2cc(F)c(-c3cncnc3)cc2s1)S(=O)(=O)c1cccc(-c2cncnc2)c1)NC1CC1 (stereo not shown) [Example 446, N-[(cyclopropyl-carbamoyl)methyl]-2-[5-fluoro-6-(pyrimidin-5-yl)-1,3-benzothiazol-2-yl]-2-[3-(pyrimidin-5-yl)benzenesulfonyl] acetamide] | 7.11 | –
12 | O=C(CNC(=O)C(c1nc2ccc(-c3ccc4c(c3)C(=O)NC4)cc2s1)S(=O)(=O)c1ccc(F)cc1)NC1CC1 (stereo not shown) [Example 451, N-[(cyclopropyl-carbamoyl)methyl]-2-(4-fluorobenzene-sulfonyl)-2-[6-(3-oxo-2,3-dihydro-1H-isoindol-5-yl)-1,3-benzothiazol-2-yl}acetamide] | 7.41 | –
13 | Cc1ncc(-c2ccc3nc(C(C(=O)NCC(=O)NC4CC4)S(=O)(=O)c4ccc(F)cc4)sc3c2)cn1 (stereo not shown) [Example 452, N-[(cyclopropyl-carbamoyl)methyl]-2-(4-fluorobenzene-sulfonyl)-2-[6-(2-methylpyrimidin-5-yl)-1,3-benzothiazol-2-yl]acetamide] | 7.41 | –
14 | O=C1Cc2ccc(-c3ccc4nc(C(C(=O)NCC(=O)NC5CC5)S(=O)(=O)c5ccc(F)cc5)sc4c3)cc2N1 (stereo not shown) [Example 453, N-[(cyclopropyl-carbamoyl)methyl]-2-(4-fluorobenzene-sulfonyl)-2-[6-(2-oxo-2,3-dihydro-1H-indol-6-yl)-1,3-benzothiazol-2-yl]acetamide] | 7.17 | –

Further compounds by rising pIC50, results first:

Row | pIC50 | pIC50 [1] | Compound
15 | 7.48 | – | Cc1cccc(S(=O)(=O)C(C(=O)NCC(=O)NC2CC2)c2nc3cc(-c4ccc(F)nc4)ccc3s2)c1 (stereo not shown) [Example 438, N-[(cyclopropyl-carbamoyl)methyl]-2-[5-(6-fluoropyridin-3-yl)-1,3-benzothiazol-2-yl]-2-(3-methylbenzene-sulfonyl)acetamide]
16 | 7.72 | – | COCCNC(=O)c1ccc(-c2ccc3nc(C(C(=O)NCC(=O)NC4CC4)S(=O)(=O)c4ccc(F)cc4)sc3c2)cc1 (stereo not shown) [Example 450, 4-[2-({[(cyclopropyl-carbamoyl)methyl]carbamoyl}(4-fluorobenzene-sulfonyl)methyl)-1,3-benzothiazol-6-yl]-N-(2-methoxyethyl) benzamide]
17 | 7.80 | – | O=C(CNC(=O)C(c1nc2ccc(-c3ccccc3)cc2s1)S(=O)(=O)c1ccc(F)cc1)NC1CC1 (stereo not shown) [Example 449, N-[(cyclopropyl-carbamoyl)methyl]-2-(4-fluorobenzene-sulfonyl)-2-(6-phenyl-1,3-benzothiazol-2-yl)acetamide]
18 | 7.82 | – | O=C(CNC(=O)C(c1nc2cc(F)c(-c3ccc(NC(=O)OCc4ccccc4)nc3)cc2s1)S(=O)(=O)CCN1CCOCC1)NC1CC1 (stereo not shown) [Example 424, benzyl N-{5-[2-({[(cyclopropyl-carbamoyl)methyl]carbamoyl}[2-(morpholin-4-yl)ethanesulfonyl]methyl)-5-fluoro-1,3-benzothiazol-6-yl]pyridin-2-yl} carbamate]
19 | 7.85 | – | O=C(CNC(=O)C(c1nc2ccc(-c3ccc(F)nc3)cc2s1)S(=O)(=O)c1ccccc1)NC1CC1 (stereo not shown) [Example 434, 2-(benzenesulfonyl)-N-[(cyclopropyl-carbamoyl)methyl]-2-[6-(6-fluoropyridin-3-yl)-1,3-benzothiazol-2-yl] acetamide]
20 | 7.89 | – | CC(=O)NCc1ccc(-c2ccc3sc(C(C(=O)NCC(=O)NC4CC4)S(=O)(=O)c4ccccc4)nc3c2)cc1 (stereo not shown) [Example 436, 2-(benzenesulfonyl)-N-[(cyclopropyl-carbamoyl)methyl]-2-{5-[4-(acetamidomethyl)phenyl]-1,3-benzothiazol-2-yl} acetamide]
21 | 7.89 | – | O=C(CNC(=O)C(c1nc2cc(-c3ccc(F)nc3)ccc2s1)S(=O)(=O)c1ccccc1)NC1CC1 (stereo not shown) [Example 437, 2-(benzenesulfonyl)-N-[(cyclopropyl-carbamoyl)methyl]-2-[5-(6-fluoropyridin-3-yl)-1,3-benzothiazol-2-yl] acetamide]
22 | 7.92 | – | COCCS(=O)(=O)C(C(=O)NCC(=O)NC1CC1)c1nc2cc(C(=O)OC(C)(C)C)c(F)cc2s1 (stereo not shown) [Example 428, tert-butyl 2-({[(cyclopropyl-carbamoyl)methyl]carbamoyl}(2-methoxyethane-sulfonyl)methyl)-6-fluoro-1,3-benzothiazole-5-carboxylate]
23 | 7.92 | – | O=C(CNC(=O)C(c1nc2cc(-c3cncnc3)ccc2s1)S(=O)(=O)c1ccccc1)NC1CC1 (stereo not shown) [Example 435, 2-(benzenesulfonyl)-N-[(cyclopropyl-carbamoyl)methyl]-2-[5-(pyrimidin-5-yl)-1,3-benzothiazol-2-yl]acetamide]
24 | 8.00 | – | CC(=O)NCc1ccc(-c2cc3sc(C(C(=O)NCC(=O)NC4CC4)S(=O)(=O)c4ccc(F)c(F)c4)nc3cc2F)cc1 (stereo not shown) [Example 442, N-[(cyclopropyl-carbamoyl)methyl]-2-(3,4-difluorobenzene-sulfonyl)-2-{6-[4-(acetamidomethyl)phenyl]-5-fluoro-1,3-benzothiazol-2-yl}acetamide]
25 | 8.00 | – | O=C(CNC(=O)C(c1nc2ccc(-c3ccc(C(=O)N4CCOCC4)cc3)cc2s1)S(=O)(=O)c1ccc(F)cc1)NC1CC1 (stereo not shown) [Example 448, N-[(cyclopropyl-carbamoyl)methyl]-2-(4-fluorobenzene-sulfonyl)-2-{6-[4-(morpholine-4-carbonyl)phenyl]-1,3-benzothiazol-2-yl}acetamide]
26 | 8.05 | – | O=C(CNC(=O)C(c1nc2ccc(-c3ccc4c(c3)CNC4=O)cc2s1)S(=O)(=O)c1ccc(F)cc1)NC1CC1 (stereo not shown) [Example 447, N-[(cyclopropyl-carbamoyl)methyl]-2-(4-fluorobenzene-sulfonyl)-2-[6-(1-oxo-2,3-dihydro-1H-isoindol-5-yl)-1,3-benzothiazol-2-yl}acetamide]
27 | 8.30 | – | CC(=O)NCc1ccc(-c2cc3sc(C(C(=O)NCC(=O)NC4CC4)S(=O)(=O)c4cccc(Cl)c4)nc3cc2F)cc1 (stereo not shown) [Example 444, 2-(3-chlorobenzene-sulfonyl)-N-[(cyclopropyl-carbamoyl)methyl]-2-{6-[4-(acetamidomethyl)phenyl]-5-fluoro-1,3-benzothiazol-2-yl}acetamide]
28 | 8.52 | – | COCCNC(=O)c1ccc(-c2ccc3nc(C(C(=O)NCC(=O)NC4CC4)S(=O)(=O)c4ccccc4)sc3c2)cc1 (stereo not shown) [Example 431, 4-{2-[(benzenesulfonyl) ({[(cyclopropyl-carbamoyl)methyl]carbamoyl})methyl]-1,3-benzothiazol-6-yl}-N-(2-methoxyethyl) benzamide]

Reference: patent publication US10173991B2, “Sulfone amide linked benzothiazole inhibitors of endothelial lipase” (BRISTOL-MYERS SQUIBB COMPANY, priority 2014, dated 2019)
